Common to all, as to assay type: cell-based, Mycobacterium tuberculosis
Test [1] concerns Fluoroquinolone resistant strain derived from H37Rv Mtb, gyrA mutant (D94N).
Test [2] deals with Isoniazid resistant strain derived from H37Rv Mtb, katG mutant (Y155* = truncation).
In test [3] the test system is Isoniazid resistant strain ACTCC35822.
The subject of test [4] is Rifampicin resistant strain derived from H37Rv Mtb, ropB mutant (S522L).
In test [5] the test system is Rifampicin resistant strain ACTCC35838. The experiment in a line: microbe, parasite or virus in culture. Particulars: read-out: MIC RIF res2.

In brackets after ≈: the same amount, converted by molar mass. Read-outs that look alike come from different tables or passages of the source. Where only a bound is given, the exact number is not on record here.

Consider `CCc1nc2ccc(Cl)cn2c1C(=O)NCc1ccc(N2CCC(c3ccc(OC(F)(F)F)cc3)CC2)cc1` [Q203], for which the “MIC FQ res” value in test [1] was 0.0058 µM (≈ 0.00323 µg/mL). Moreover, in test [2], the “MIC INH res1” value was 0.0074 µM (≈ 0.00412 µg/mL). The “MIC INH res2” value in test [3] amounted to 0.0038 µM (≈ 0.00212 µg/mL). Besides, in test [4], the “MIC RIF res1” value is 0.0030 µM (≈ 0.00167 µg/mL). Besides, the MIC in test [5] (Mycobacterium tuberculosis) was 0.0056 µM (≈ 0.00312 µg/mL).

Consider `C[C@H]1COc2c(N3CCN(C)CC3)c(F)cc3c(=O)c(C(=O)O)cn1c23` [LEV, Levoflaxacin], for which, in test [1], the “MIC FQ res” value was found to be 91 µM (≈ 32.9 µg/mL). Also, the “MIC INH res1” value in test [2] is 3.97 µM (≈ 1.43 µg/mL). In addition, the “MIC INH res2” value in test [3] (ACTCC35822) was 5.83 µM (≈ 2.11 µg/mL). The “MIC RIF res1” value in test [4] amounted to 3.43 µM (≈ 1.24 µg/mL). Further, the MIC in test [5] turned out to be 3.83 µM (≈ 1.38 µg/mL).

Take `Cc1cn2c(C(=O)NCc3ccc(N4CCN(c5ccc(C(F)(F)F)cn5)CC4)c(F)c3)c(C)nc2s1` [ND-11543, N-(3-fluoro-4-(4-(5-(trifluoromethyl)pyridin-2-yl)piperazin-1-yl)benzyl)-2,6-dimethylimidazo[2,1-b]thiazole-5-carboxamide]: the “MIC FQ res” value in test [1] was 0.010 µM (≈ 0.00533 µg/mL). For the same compound, the “MIC INH res1” value in test [2] amounted to 0.012 µM (≈ 0.00639 µg/mL). For the same compound, in test [3], the “MIC INH res2” value came out at 0.0047 µM (≈ 0.0025 µg/mL). Besides, the “MIC RIF res1” value in test [4] is 0.0017 µM (≈ 0.000905 µg/mL). In test [5] (Mycobacterium tuberculosis), the MIC is 0.0057 µM (≈ 0.00304 µg/mL).

With `CO[C@H]1/C=C/O[C@@]2(C)Oc3c(C)c(O)c4c(O)c(c(/C=N/N5CCN(C)CC5)c(O)c4c3C2=O)NC(=O)/C(C)=C\C=C\[C@H](C)[C@H](O)[C@@H](C)[C@@H](O)[C@@H](C)[C@H](OC(C)=O)[C@@H]1C` [RIF, Rifampicin], in test [1], the “MIC FQ res” value came out at 0.043 µM (≈ 0.0354 µg/mL). For the same compound, the “MIC INH res1” value in test [2] came out at 0.027 µM (≈ 0.0222 µg/mL). For the same compound, the “MIC INH res2” value in test [3] worked out at 0.013 µM (≈ 0.0107 µg/mL). For the same compound, in test [4], the “MIC RIF res1” value turned out to be 3.2 µM (≈ 2.63 µg/mL). The MIC in test [5] (Mycobacterium tuberculosis) was over 50 µM.

For the compound `CCc1nc2sc(C)cn2c1C(=O)NCc1ccc(Oc2cccc(C(F)(F)F)c2)nc1` [ND-12024, 6-Ethyl-2-methyl-N-((6-(3-(trifluoromethyl)phenoxy)yridine-3-yl)methyl)imidazo[2,1-b]thiazole-5-carboxamide], the “MIC FQ res” value in test [1] stood at 0.40 µM (≈ 0.184 µg/mL). Besides, the “MIC INH res1” value in test [2] stood at 0.49 µM (≈ 0.226 µg/mL). In test [3], the “MIC INH res2” value was determined as 0.22 µM (≈ 0.101 µg/mL). For the same compound, the “MIC RIF res1” value in test [4] came to 0.047 µM (≈ 0.0216 µg/mL). For the same compound, the MIC in test [5] (Mycobacterium tuberculosis) came to 0.13 µM (≈ 0.0599 µg/mL).

Take `NNC(=O)c1ccncc1` [INH, Isoniazid]: in test [1], the “MIC FQ res” value is 0.34 µM (≈ 0.0466 µg/mL). In addition, in test [2], the “MIC INH res1” value was over 200 µM. The “MIC INH res2” value in test [3] is over 200 µM. Also, the “MIC RIF res1” value in test [4] was found to be 0.160 µM (≈ 0.0219 µg/mL). Also, the MIC in test [5] (Mycobacterium tuberculosis) was 0.37 µM (≈ 0.0507 µg/mL).

Consider `Cc1cn2c(C(=O)NCc3ccc(N4CCS(=O)(=O)CC4)c(F)c3)c(C)nc2s1` [ND-11903, N-(4-(1,1-Dioxidothiomorpholino)-3-fluorobenzyl)-2,6-dimethylimidazo[2,1-b]thiazole-5-carboxamide], for which, in test [1], the “MIC FQ res” value came out at 3.2 µM (≈ 1.4 µg/mL). Besides, the “MIC INH res1” value in test [2] was 6.5 µM (≈ 2.84 µg/mL). For the same compound, the “MIC INH res2” value in test [3] is 5.0 µM (≈ 2.18 µg/mL). For the same compound, in test [4], the “MIC RIF res1” value came out at 2.9 µM (≈ 1.27 µg/mL). Further, in test [5] (Mycobacterium tuberculosis), the MIC was 7 µM (≈ 3.06 µg/mL).

Values taken from paper PMC6944458, “Intracellular and in vivo evaluation of imidazo[2,1-b]thiazole-5-carboxamide anti-tuberculosis compounds” (PLoS ONE, 2020).
